This note sets out measurements from patent US11976083B2, “Inhibitors of peptidylarginine deiminases” (Gilead Sciences, Inc., priority 2020, dated 2024).

The target in the test is T1, human PAD4 (Homo sapiens, UniProt Q9UM07).
T1 construct: human PAD4 (NM_012387), A2-P663, was PCR amplified; His-SUMO (N, cleaved yes); made in house; host or cells: E. coli BL21(DE3)
The test can be described thus: In vitro PAD4 BAEE biochemical assay. Conditions: BAEE substrate 3 mM, 5 nM PAD4, 2 mM calcium chloride; geometric mean of multiple experiments. The gist of the method:
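Ammonia produced by BAEE deimination (3 mM substrate, 2 h, 25 °C) was read as fluorescent isoindole after o-phthalaldehyde/DTT derivatization, ex 405 nm/em 535 nm. Human PAD4 at 5 nM final, 2 mM calcium, pH 7.6 MOPS; compound preincubated 30 min. IC50s, normalized to BB-Cl-Amidine and DMSO controls, were geometric-mean averaged.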

T1 sequence (Q9UM07 2-663): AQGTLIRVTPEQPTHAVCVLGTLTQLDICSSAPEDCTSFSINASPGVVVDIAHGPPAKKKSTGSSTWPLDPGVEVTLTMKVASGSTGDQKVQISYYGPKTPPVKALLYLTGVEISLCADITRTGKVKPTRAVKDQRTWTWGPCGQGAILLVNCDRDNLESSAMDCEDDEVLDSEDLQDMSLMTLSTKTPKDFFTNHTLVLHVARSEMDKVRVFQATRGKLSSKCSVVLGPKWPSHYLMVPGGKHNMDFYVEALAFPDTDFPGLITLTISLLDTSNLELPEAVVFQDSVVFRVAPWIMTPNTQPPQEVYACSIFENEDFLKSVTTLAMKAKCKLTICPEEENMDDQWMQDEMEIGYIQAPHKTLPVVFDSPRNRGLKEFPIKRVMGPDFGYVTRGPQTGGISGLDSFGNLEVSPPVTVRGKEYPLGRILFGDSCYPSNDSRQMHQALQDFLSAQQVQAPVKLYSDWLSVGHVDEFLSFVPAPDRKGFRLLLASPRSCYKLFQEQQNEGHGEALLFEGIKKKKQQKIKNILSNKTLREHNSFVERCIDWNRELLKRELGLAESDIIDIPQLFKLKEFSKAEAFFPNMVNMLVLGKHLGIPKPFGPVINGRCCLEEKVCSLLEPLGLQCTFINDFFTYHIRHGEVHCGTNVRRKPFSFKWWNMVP

As usually defined, the IC50 is the point on the concentration scale where inhibition reaches its midpoint. On to `COc1cc(C(=O)N2[C@H]3CC[C@@H]2[C@H](N)C3)cc2nc(-c3cc4ccc5nc4n3CCCCCCOc3ncccc3-5)n(C)c12` [Example 83, [(1~{R},2~{R},4~{S})-2-amino-7-azabicyclo[2.2.1]heptan-7-yl]-[7-methoxy-1-methyl-2-(8-oxa-6,15,21-triazatetracyclo[13.5.2.0^{2,7}.0^{18,22}]docosa-1(21),2,4,6,16,18(22),19-heptaen-16-yl)benzimidazol-5-yl]methanone], for which the IC50 was 204 nM. With `COc1cc(C(=O)N2CCC[C@@H](N)C2)cc2nc(-c3cc4ccc5nc4n3CCCCCCNC(=O)c3ccccc3-5)n(C)c12` [Example 49, 17-[5-[(3~{R})-3-aminopiperidine-1-carbonyl]-7-methoxy-1-methyl-benzimidazol-2-yl]-9,16,22-triazatetracyclo[14.5.2.0^{2,7}.0^{19,23}] tricosa-1(22),2,4,6,17,19(23),20-heptaen-8-one] the figure was 112 nM; with `C[C@H]1NC(=O)c2nn(C)nc2CCCCCn2c(-c3nc4cc(C(=O)N[C@H]5CNCC[C@@H]5F)c(F)cc4n3C)cc3ccc1nc32` [Example 546, 2-[(2~{R})-2,7-dimethyl-4-oxo-3,6,7,8,15,21-hexazatetracyclo[13.5.2.0^ {5,9}.0^{18,22}]docosa-1(21),5,8,16,18(22), 19-hexaen-16-yl]-6-fluoro-~{N}-[(3~{S},4~{S})-4-fluoro-3-piperidyl]-1-methyl-benzimidazole-5-carboxamide], 59 nM. Turning to `COc1cc(C(=O)N[C@H]2CNC[C@H](O)C2)cc2nc(-c3cc4ccc5nc4n3CCCCCCC(C)(C)C(=O)N[C@@H]5C)n(C)c12` [Example 530, ~{N}-[(3~{R},5~ {R})-5-hydroxy-3-piperidyl]-7-methoxy-1-methyl-2-[(11~{R})-8,8,11-trimethyl-9-oxo-1,10,19-triazatricyclo [10.5.2.0^{15,18}]nonadeca-12(19),13,15(18),16-tetraen-17-yl]benzimidazole-5-carboxamide], the IC50 came to 51 nM.

As to `C[C@H]1NC(=O)c2ccc(Cl)nc2CCCCCn2c(-c3nc4cc(C(=O)N5C[C@H](N)[C@@H]6CC[C@H]5C6)cc(F)c4n3[C@@H]3C[C@@H]3F)cc3ccc1nc32` [Example 452, (2~{R})-17-[(1~{R})-5-[(1~{S},4~{R},5~{R})-4-amino-2-azabicyclo[3.2.1]octane-2-carbonyl]-7-fluoro-1-[(2~{S})-2-fluorocyclopropyl]benzimidazol-2-yl]-8-chloro-2-methyl-3,9,16,22-tetrazatetracyclo[14.5.2.0^{5,10).0^{19,23}] tricosa-1(22),5(10),6,8,17,19(23),20-heptaen-4-one], the IC50 was found to be 37 nM. To `COc1cc(C(=O)N2C[C@@H]3NCCO[C@@H]3C[C@@H]2C)cc2nc(-c3cc4ccc5nc4n3CC(F)(F)CCC[C@@H]3C[C@H]3C(=O)N[C@@H]5C)n(C)c12` [Example 801, (2~{R},5~{R},7~{R})-14-[5-[(4~{a}~{S),7~{S},8~{a}~ {R})-7-methyl-2,3,4,4~{a}, 5,7,8,8~{a}-octahydropyrido [4,3-b][1,4]oxazine-6-carbonyl]-7-methoxy-1-methyl-benzimidazol-2-yl]-11,11-difluoro-2-methyl-3,13,19-triazatetracyclo[11.5.2.0^ {5,7}.0^{16,20}]icosa-1(18),14,16,19-tetraen-4-one] belongs 334 nM; to `COc1cc(C(=O)N[C@@H]2CC[C@H](C)NC2)cc2nc(-c3cc4ccc5nc4n3CCCCCCC3(CC3)C(=O)N[C@@H]5C)n(C)c12` [Example 72, 7-methoxy-1-methyl-2-[(11~{R})-11-methyl-9-oxo-spiro[1,10,19-triazatricyclo[10.5.2.0^{15,18}]nonadeca-12(19),13,15(18),16-tetraene-8,1′-cyclopropane]-17-yl]-~{N}-[(3~{R},6~{S})-6-methyl-3-piperidyl]benzimidazole-5-carboxamide], 308 nM; to `COc1cc(C(=O)N2CC(N)CC(F)(F)C2)cc2nc(-c3cc4ccc5nc4n3CCCCCCC(C)(C)C(=O)N[C@@H]5C)n(C)c12` (stereo partly drawn) [Example 204, (11~{R})-17-[5-(5-amino-3,3-difluoro-piperidine-1-carbonyl)-7-methoxy-1-methyl-benzimidazol-2-yl]-8,8,11-trimethyl-1,10,19-triazatricyclo[10.5.2.0^{15,18}]nonadeca-12(19),13,15(18),16-tetraen-9-one], 3350 nM. Regarding `COc1cc(C(=O)N2[C@H]3CC[C@@H]2[C@H](N)C3)cc2nc(-c3cc4ccc5nc4n3CCCCCCCC(=O)N[C@H]5C(F)(F)F)n(C)c12` [Example 257, (11~{R})-17-[5-[(1~{R},2~{R},4~{S})-2-amino-7-azabicyclo[2.2.1]heptane-7-carbonyl]-7-methoxy-1-methyl-benzimidazol-2-yl]-11-(trifluoromethyl)-1,10,19-triazatricyclo[10.5.2.0^{15,18}]nonadeca-12(19),13,15(18),16-tetraen-9-one], the concentration for half-maximal inhibition (IC50) came to 2470 nM. On to `COc1cc(C(=O)N2[C@H]3CC[C@@H]2[C@H](N)C3)cc2nc(-c3cc4ccc5nc4n3CCCCCC[C@H](C)C(=O)N[C@@H]5C)n(C)c12` [Example 137, (8~{S},11~{R})-17-[5-[(1~{R},2~{R},4~{S})-2-amino-7-azabicyclo[2.2.1]heptane-7-carbonyl]-7-methoxy-1-methyl-benzimidazol-2-yl]-8,11-dimethyl-1,10,19-triazatricyclo[10.5.2.0^{15,18}]nonadeca-12(19),13,15(18),16-tetraen-9-one], for which the IC50 came to 35 nM. To `COc1cc(C(=O)N2C[C@H](N)[C@H](O)[C@@H](F)C2)cc2nc(-c3cc4ccc5nc4n3CC(F)(F)CCC[C@@H]3C[C@H]3C(=O)N[C@@H]5C)n(C)c12` [Example 678, (2~{R},5~{R},7~{R})-14-[5-[(3~{S},4~{S},5~ {S})-3-amino-5-fluoro-4-hydroxy-piperidine-1-carbonyl]-7-methoxy-1-methyl-benzimidazol-2-yl]-11,11-difluoro-2-methyl-3,13,19-triazatetracyclo[11.5.2.0^ {5,7}.0^{16,20}]icosa-1(19), 14,16(20),17-tetraen-4-one] belongs 15 nM; to `COc1cc(C(=O)N2[C@H]3CC[C@@H]2[C@H](N)C3)cc2nc(-c3cc4ccc5nc4n3C[C@@H]3C[C@H]3COCCC(=O)N[C@@H]5C)n(C)c12` [Example 218, (3~{R},5~{R},12~{R})-18-[5-[(1~{R},2~{R},4~{S})-2-amino-7-azabicyclo[2.2.1]heptane-7-carbonyl]-7-methoxy-1-methyl-benzimidazol-2-yl]-12-methyl-7-oxa-1,11,20-triazatetracyclo[11.5.2.0^{3,5}.0^{16,19}] icosa-13(20),14,16(19),17-tetraen-10-one], 29 nM. To `COc1cc(C(=O)N2CC[C@@H](OC)[C@@H](N)C2)cc2nc(-c3cc4ccc5nc4n3CCCCCC[C@@H]3C[C@H]3C(=O)N[C@@H]5C)n(C)c12` [Example 586, (2~{R},5~{R},7~{R})-15-[5-(3~{S),4~{R})-3-[amino-4-methoxy-piperidine-1-carbonyl]-7-methoxy-1-methyl-benzimidazol-2-yl]-2-methyl-3,14,20-triazatetracyclo[12.5.2.0^ {5,7}.0^{17,21}] henicosa-1(20),15,17(21), 18-tetraen-4-one] belongs 88 nM; to `COc1cc(C(=O)N2CC[C@@H](OC)[C@@H](N)C2)cc2nc(-c3cc4ccc5nc4n3CCCCCc3cnc(Cl)cc3C(=O)N[C@@H]5C)n(C)c12` [Example 359, (2~{R})-17-[5-[(3~{S},4~{R})-3-amino-4-methoxy-piperidine-1-carbonyl]-7-methoxy-1-methyl-benzimidazol-2-yl]-7-chloro-2-methyl-3,8,16,22-tetrazatetracyclo[14.5.2.0^{5,10}.0^{19,23}] tricosa-1(22),5,7,9,17,19(23),20-heptaen-4-one], 104 nM; to `C[C@H]1NC(=O)[C@@H]2C[C@H]2CCCCCn2c(-c3nc4cc(C(=O)N[C@H]5CNCC[C@@H]5F)c(F)cc4n3[C@H]3C[C@@H]3C)cc3ccc1nc32` [Example 413, 6-fluoro-˜{N}-[(3˜{S},4˜{S})-4-fluoro-3-piperidyl]-1-[(1˜{S},2˜{S})-2-methylcyclopropyl]-2-[(2˜{R},5˜{R},7˜{R})-2-methyl-4-oxo-3,13,19-triazatetracyclo[11.5.2.0^{5,7}.0^{16,20}]icosa-1(19),14,16(20),17-tetraen-14-yl]benzimidazole-5-carboxamide], 37 nM. With `COc1cc(C(=O)N2C[C@H]3C[C@H]3[C@H](N)C2)cc2nc(-c3cc4ccc5nc4n3CCCCCCC(C)(C)C(=O)N[C@@H]5C)n(C)c12` [Example 543, (11~{R})-17-[5-[(1~ {S},5~{S},6~{R})-5-amino-3-azabicyclo [4.1.0]heptane-3-carbonyl]-7-methoxy-1-methyl-benzimidazol-2-yl]-8,8,11-trimethyl-1,10,19-triazatricyclo [10.5.2.0^{15,18}]nonadeca-12(19),13,15(18), 16-tetraen-9-one] the figure was 405 nM; with `COc1cc(C(=O)N2CCC[C@@H](N)C2)cc2nc(-c3cc4ccc5nc4n3CCCCCCNC(=O)c3cccc(C)c3-5)n(C)c12` [Example 57, 17-[5-[(3~{R})-3-aminopiperidine-1-carbonyl]-7-methoxy-1-methyl-benzimidazol-2-yl]-3-methyl-9,16,22-triazatetracyclo[14.5.2.0^{2,7}.0^{19,23}] tricosa-1(22),2,4,6,17,19(23),20-heptaen-8-one], 213 nM. Turning to `COc1cc(C(=O)N2[C@H]3CC[C@@H]2[C@H](N)C3)cc2nc(-c3cc4ccc5nc4n3CCCCCCCCC(=O)N5C)c(C)n12` [Example 127, 17-[7-[(1˜{R},2˜{R},4˜{S})-2-amino-7-azabicyclo[2.2.1]heptane-7-carbonyl]-5-methoxy-3-methyl-imidazo[1,2-a]pyridin-2-yl]-11-methyl-1,11,19-triazatricyclo[10.5.2.0^{15,18}]nonadeca-12(19),13,15(18),16-tetraen-10-one], the IC50 was 31 nM.
